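Briefly, cells in 96-well plates were exposed to five compound concentrations for 48 h, and endpoints were estimated by linear interpolation. TGI denotes the concentration required for complete inhibition of growth.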
How the values were obtained:
Test in all cases: NCI tumour cell line growth inhibition, 48 h
[1] = tested on: A498 renal
[2] = tested on: HOP-92 NSCLC
[3] = tested on: 786-0 renal
[4] = tested on: HOP-62 NSCLC
[5] = tested on: DU-145 prostate
[6] = tested on: OVCAR-3 ovarian
[7] = tested on: CCRF-CEM leukemia
[8] = tested on: NCI-H23 lung
[9] = tested on: LOX IMVI melanoma
[10] = tested on: HCC-2998 colon
[11] = tested on: NCI-H522 lung
[12] = tested on: OVCAR-4 ovarian
[13] = tested on: MDA-MB-231 breast
[14] = tested on: SW-620 colon
[15] = tested on: OVCAR-5 ovarian
[16] = tested on: HT29 colon
[17] = tested on: MALME-3M melanoma
[18] = tested on: UACC-257 melanoma
[19] = tested on: CAKI-1 renal

## CCOP(=O)(OCC)/C(C#N)=C/c1ccc(-c2ccc(F)cc2F)o1
[1]
  TGI: 28.8 µM
[2]
  TGI: 35.7 µM
[3]
  TGI: 27.4 µM
[4]
  TGI: 33.8 µM
[5]
  TGI: 42.5 µM
[6]
  TGI: 30.1 µM
[7]
  TGI: 38.7 µM
[8]
  TGI: 33.6 µM
[9]
  TGI: 32.9 µM
[10]
  TGI: 27.6 µM
[11]
  TGI: 37 µM
[12]
  TGI: 33.4 µM
[13]
  TGI: 36.6 µM
[14]
  TGI: 38.5 µM
[15]
  TGI: 31.7 µM
[16]
  TGI: 33.1 µM
[17]
  TGI: 33.4 µM
[18]
  TGI: 26.8 µM
[19]
  TGI: 28.6 µM

## C=C1CCC2CC1[C@@H](C(=O)c1c[nH]c3ccccc13)NC2(C)C (stereo not given in full)
[1]
  TGI: > 37.5 µM
[2]
  TGI: 31 µM
[3]
  TGI: > 37.5 µM
[4]
  TGI: > 37.5 µM
[5]
  TGI: > 37.5 µM
[6]
  TGI: > 37.5 µM
[7]
  TGI: > 37.5 µM
[8]
  TGI: > 37.5 µM
[9]
  TGI: > 37.5 µM
[10]
  TGI: 32.4 µM
[11]
  TGI: > 37.5 µM
[12]
  TGI: > 37.5 µM
[13]
  TGI: > 37.5 µM
[14]
  TGI: > 37.5 µM
[15]
  TGI: > 37.5 µM
[16]
  TGI: > 37.5 µM
[17]
  TGI: > 37.5 µM
[18]
  TGI: > 37.5 µM
[19]
  TGI: > 37.5 µM

## C=CCOC1=C(OCC=C)C(C2COC(C)(C)O2)OC1=O (stereo not given)
[1]
  TGI: > 100 µM
[2]
  TGI: 83.3 µM
[3]
  TGI: > 100 µM
[4]
  TGI: > 100 µM
[5]
  TGI: > 100 µM
[6]
  TGI: > 100 µM
[7]
  TGI: > 100 µM
[8]
  TGI: > 100 µM
[9]
  TGI: > 100 µM
[10]
  TGI: > 100 µM
[11]
  TGI: 45.2 µM
[12]
  TGI: > 100 µM
[13]
  TGI: > 100 µM
[14]
  TGI: > 100 µM
[15]
  TGI: > 100 µM
[16]
  TGI: > 100 µM
[17]
  TGI: > 100 µM
[18]
  TGI: > 100 µM
[19]
  TGI: 34.9 µM

## C(=C\c1nccs1)/c1cccc(/C=C/c2nccs2)n1
[1]
  TGI: > 50 µM
[2]
  TGI: > 50 µM
[3]
  TGI: > 50 µM
[4]
  TGI: > 50 µM
[5]
  TGI: > 50 µM
[6]
  TGI: > 50 µM
[7]
  TGI: > 50 µM
[8]
  TGI: > 50 µM
[9]
  TGI: > 50 µM
[10]
  TGI: > 50 µM
[11]
  TGI: > 50 µM
[12]
  TGI: > 50 µM
[13]
  TGI: > 50 µM
[14]
  TGI: > 50 µM
[15]
  TGI: > 50 µM
[16]
  TGI: > 50 µM
[17]
  TGI: > 50 µM
[18]
  TGI: > 50 µM
[19]
  TGI: > 50 µM

## NC1CC(N)c2c(Br)sc(Br)c21 (stereo not given)
[1]
  TGI: > 100 µM
[2]
  TGI: > 100 µM
[3]
  TGI: > 100 µM
[4]
  TGI: > 100 µM
[5]
  TGI: > 100 µM
[6]
  TGI: > 100 µM
[7]
  TGI: > 100 µM
[8]
  TGI: > 100 µM
[9]
  TGI: > 100 µM
[10]
  TGI: > 100 µM
[11]
  TGI: > 100 µM
[12]
  TGI: > 100 µM
[13]
  TGI: > 100 µM
[14]
  TGI: > 100 µM
[15]
  TGI: > 100 µM
[16]
  TGI: > 100 µM
[17]
  TGI: > 100 µM
[18]
  TGI: > 100 µM
[19]
  TGI: > 100 µM

— PubChem BioAssay (NCI)
